# Measured values from patent US10961222B2, “Chemical compound of isocitrate dehydrogenase inhibitor, and application thereof” (NANJING SANHOME PHARMACEUTICAL CO., LTD., priority 2016, dated 2021).
# Experiments:
# [1] = tested on: U87-MG (IDH2-R140Q) subcutaneous xenograft tumor; assay: Subcutaneous xenograft tumor caused by U87-MG (IDH2-R140Q) mutant cells in vivo: intratumor 2-HG; parameters: species or system BALB/c nude mice; conditions: U87-MG (IDH2-R140Q) subcutaneous xenograft model
# Excerpt: 1.2 Animals: BALB/c nude mice, 6-7 weeks old, female, 18-22 g, purchased from Nanjing Jinlaichang Company.
# U87-MG (IDH2-R140Q) cells and U87-MG cells (wild type) were expanded, and cells in logarithmic growth phase were used for tumor inoculation in vivo. 16 mice were inoculated subcutaneously into the right lower back of the body at an amount of 2×10^6 cells/mouse (the volume ratio of cell suspension to Matrigel was 1:0.8).
# The non-mutation control group was nude mice inoculated with U87-MG cells, and the test compound groups and vehicle control group were nude mice inoculated with U87-MG (IDH2-R140Q) cells.
# Each group was intragastrically administered with a corresponding concentration of the compound solution, the administration volume was 100 μL/10 g body weight, and the control group was administered the same volume of blank vehicle.
# After 10 days of administration, the mice were sacrificed. The tumors were exfoliated, homogenized, and the 2-HG content in the tumor was examined.
# The 2-HG concentration in the homogenate of each animal tumor in each group was determined by LC-MS/MS. The percentage (2-HG %) was calculated; the calculation formula is as follows 2-HG %=(2-HG concentration of administration group tumor−2-HG concentration of U87-MG control group tumor)/(2-HG concentration of U87−MG(IDH2-R140Q) control group tumor−2-HG concentration of U87-MG control group tumor)×100%.
# [2] = tested on: human acute myeloid leukemia AM7577 cells; assay: Human acute myeloid leukemia NOD/SCID animal model: survival; assay type: in vivo, NOD/SCID mice; conditions: gavage once a day for 14 days, 14 days after administration
# Excerpt: 1.1 Compounds to be tested: the compounds of the present disclosure prepared in the above examples, each of which was formulated into a solution in corresponding concentrations by using a vehicle (2% absolute ethanol:10% Solutol™: 88% physiological saline (v/v/v)).
# 1.2 Cells: human acute myeloid leukemia AM7577 cells, provided by Sino-American Crown Biotechnology (Beijing) Co., Ltd
# 1.4 Animals: NOD/SCID mice, 3-4 weeks old, female, purchased from Beijing Huakangkang Biotechnology Co., Ltd
# Each mouse was inoculated through the tail vein at an amount of 2×10^6 cells resuspended in 100 uL of PBS.
# Orbital blood samples of animals were collected weekly, labeled with human CD45, and the percentage of positive cells was detected. The animals were grouped when the percentage of peripheral blood CD45+ cells reached 5%. The proportion of peripheral blood CD45+ cells reached 5% on the 40th day after inoculation. After grouping, drugs were administered by gastric gavageonce once a day for 14 days.
# The mortality rate of the animals after administration and the survival period of the surviving animals were observed.
structure (smiles),measurement,setting,value
"O[C@@]1(C(F)(F)F)CCN(c2nc(Nc3ccnc(C(F)(F)F)c3)nc(-c3cccc(C(F)(F)F)n3)n2)C1 [Example 22B, (S)-4-(3-trifluoromethyl-3-hydroxypyrrolidin-1-yl)-6-(6-(trifluoromethyl)pyridin-2-yl)-N-(2-(trifluoromethyl)pyridin-4-yl)-1,3,5-triazin-2-amine]",ability of lowering 2-HG level compared with positive compound AG-221,[1],substantially superior
same,Numbers of surviving animals,"[2]; 15 mg/kg, 8 animals per group",7
same,Numbers of surviving animals,"[2]; 45 mg/kg, AG-221 group 4 animals, Example 22B group 8",7
